Assays:
[1] = target: T1, Amine oxidase [flavin-containing] A (Mus musculus, UniProt Q64133); assay: Inhibition of MAO-A in mouse brain mitochondrial fraction using kynuramine as substrate after 30 mins by fluorometric analysis
T1 sequence (Q64133 whole entry): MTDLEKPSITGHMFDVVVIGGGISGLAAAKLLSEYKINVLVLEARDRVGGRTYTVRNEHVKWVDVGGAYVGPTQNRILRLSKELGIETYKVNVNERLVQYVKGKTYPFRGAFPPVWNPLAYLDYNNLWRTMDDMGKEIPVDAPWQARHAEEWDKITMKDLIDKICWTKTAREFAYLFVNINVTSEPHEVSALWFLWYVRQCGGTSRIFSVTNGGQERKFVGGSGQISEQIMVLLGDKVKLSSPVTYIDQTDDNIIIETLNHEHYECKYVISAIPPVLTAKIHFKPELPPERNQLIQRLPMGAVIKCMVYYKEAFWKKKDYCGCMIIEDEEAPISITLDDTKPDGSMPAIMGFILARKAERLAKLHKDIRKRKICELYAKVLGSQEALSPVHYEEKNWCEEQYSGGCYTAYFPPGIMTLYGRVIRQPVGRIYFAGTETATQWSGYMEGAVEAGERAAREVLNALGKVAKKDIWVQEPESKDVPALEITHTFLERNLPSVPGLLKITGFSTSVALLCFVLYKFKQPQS

Homo sapiens [2] = organism: Homo sapiens; assay: Selectivity index, ratio of IC50 for human recombinant MAO-B expressed in baculovirus infected BTI insect cells to IC50 for human recombinant MAO-A expressed in baculovirus infected BTI insect cells
[3] = target: T2, Amine oxidase [flavin-containing] A (Homo sapiens, UniProt P21397); assay: biochemical
T2 sequence (P21397 whole entry): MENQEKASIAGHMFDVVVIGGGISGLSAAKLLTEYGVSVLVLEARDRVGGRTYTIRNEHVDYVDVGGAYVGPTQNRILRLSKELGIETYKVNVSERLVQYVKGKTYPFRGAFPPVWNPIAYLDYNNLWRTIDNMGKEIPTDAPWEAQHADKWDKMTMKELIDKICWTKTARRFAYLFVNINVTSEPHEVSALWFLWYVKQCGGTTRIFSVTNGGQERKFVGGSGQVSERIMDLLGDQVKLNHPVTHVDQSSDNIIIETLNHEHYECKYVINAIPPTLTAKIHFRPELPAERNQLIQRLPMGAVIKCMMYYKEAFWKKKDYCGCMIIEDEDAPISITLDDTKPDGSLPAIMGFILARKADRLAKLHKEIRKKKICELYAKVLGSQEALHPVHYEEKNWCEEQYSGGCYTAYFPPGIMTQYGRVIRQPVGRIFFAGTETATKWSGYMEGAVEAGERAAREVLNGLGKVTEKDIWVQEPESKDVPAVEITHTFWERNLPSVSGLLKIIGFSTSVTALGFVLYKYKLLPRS

[4] = target: T2, Amine oxidase [flavin-containing] A; assay: Reversible inhibition of human recombinant MAO-A expressed in baculovirus infected BTI insect cells assessed as residual activity at 2 uM incubated for 30 mins using kynuramine as substrate by spectrophotometric analysis relative to control; conditions: 0.5 h, read-out: Activity
[5] = target: T2, Amine oxidase [flavin-containing] A; assay: Reversible inhibition of human recombinant MAO-A expressed in baculovirus infected BTI insect cells assessed as residual activity at 2 uM incubated for 30 mins followed by dialysis using kynuramine as substrate by spectrophotometric analysis relative to control; conditions: 0.5 h, read-out: Activity
[6] = target: T2, Amine oxidase [flavin-containing] A; assay: Inhibition of human recombinant MAO-A expressed in baculovirus infected BTI insect cells using kynuramine as substrate assessed as residual activity at 10 uM after 20 mins by spectrophotometric analysis relative to control; conditions: read-out: Activity
[7] = target: T3, Amine oxidase [flavin-containing] B (Homo sapiens, UniProt P27338); assay: Inhibition of human recombinant MAO-B expressed in baculovirus infected BTI insect cells using benzylamine as substrate assessed as residual activity at 10 uM after 30 mins by spectrophotometric analysis relative to control; conditions: 0.5 h, read-out: Activity
T3 sequence (P27338 whole entry): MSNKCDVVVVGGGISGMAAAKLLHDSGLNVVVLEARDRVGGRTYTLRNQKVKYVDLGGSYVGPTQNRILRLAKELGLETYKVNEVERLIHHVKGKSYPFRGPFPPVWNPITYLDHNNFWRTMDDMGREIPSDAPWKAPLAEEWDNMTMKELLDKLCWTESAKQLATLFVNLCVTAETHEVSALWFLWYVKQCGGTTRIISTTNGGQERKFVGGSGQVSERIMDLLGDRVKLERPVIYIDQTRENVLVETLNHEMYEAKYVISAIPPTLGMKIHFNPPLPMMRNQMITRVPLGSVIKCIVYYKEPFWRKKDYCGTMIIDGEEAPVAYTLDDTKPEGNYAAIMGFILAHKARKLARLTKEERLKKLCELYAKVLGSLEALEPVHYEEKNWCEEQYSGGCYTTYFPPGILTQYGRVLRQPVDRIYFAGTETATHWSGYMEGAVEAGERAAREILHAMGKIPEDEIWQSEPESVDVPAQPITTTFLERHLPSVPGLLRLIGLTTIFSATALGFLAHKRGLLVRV

[8] = target: T3, Amine oxidase [flavin-containing] B; assay: biochemical; type: cell-based
Acetylcholinesterase = Acetylcholinesterase (Electrophorus electricus, UniProt O42275); assay: Inhibition of electric eel AChE using acetylthiocholine iodide as substrate preincubated for 15 mins followed by substrate addition by Ellman's method
[9] = target: T2, Amine oxidase [flavin-containing] A; assay: Reversible inhibition of human recombinant MAO-A expressed in baculovirus infected BTI insect cells assessed as residual activity at 1.5 uM incubated for 30 mins using kynuramine as substrate by spectrophotometric analysis relative to control; conditions: 0.5 h, read-out: Activity
[10] = target: T2, Amine oxidase [flavin-containing] A; assay: Reversible inhibition of human recombinant MAO-A expressed in baculovirus infected BTI insect cells assessed as residual activity at 1.5 uM incubated for 30 mins followed by dialysis using kynuramine as substrate by spectrophotometric analysis relative to control; conditions: 0.5 h, read-out: Activity
[11] = target: T2, Amine oxidase [flavin-containing] A; assay: biochemical; remark: listed apart in the source
[12] = target: T2, Amine oxidase [flavin-containing] A; assay: Inhibition of human MAO-A using kynuramine as substrate after 30 mins by spectrophotometric analysis
Homo sapiens [13] = organism: Homo sapiens; assay: Selectivity index, ratio of IC50 for human recombinant MAO-B to IC50 for human recombinant MAO-A
[14] = target: T2, Amine oxidase [flavin-containing] A; assay: Inhibition of human recombinant MAO-A expressed in baculovirus infected BTI-TN-5B1-4 insect cells using p-tyramine as substrate after 15 mins by resorufin dye-based spectrometric analysis
[15] = target: T2, Amine oxidase [flavin-containing] A; assay: Irreversible inhibition of human recombinant MAO-A expressed in baculovirus infected BTI insect cells assessed as residual activity at 0.01 uM incubated for 30 mins using kynuramine as substrate by spectrophotometric analysis relative to control; conditions: 0.5 h, read-out: Activity
[16] = target: T2, Amine oxidase [flavin-containing] A; assay: Irreversible inhibition of human recombinant MAO-A expressed in baculovirus infected BTI insect cells assessed as residual activity at 0.01 uM incubated for 30 mins followed by dialysis using kynuramine as substrate by spectrophotometric analysis relative to control; conditions: 0.5 h, read-out: Activity
[17] = target: T4, Amine oxidase [flavin-containing] A (Rattus norvegicus, UniProt P21396); assay: Inhibition of MAO-A in Sprague-Dawley rat brain mitochondrial fraction after 10 mins in presence of [14C]5-hydroxytryptamine by liquid scintillation analysis
T4 sequence (P21396 whole entry): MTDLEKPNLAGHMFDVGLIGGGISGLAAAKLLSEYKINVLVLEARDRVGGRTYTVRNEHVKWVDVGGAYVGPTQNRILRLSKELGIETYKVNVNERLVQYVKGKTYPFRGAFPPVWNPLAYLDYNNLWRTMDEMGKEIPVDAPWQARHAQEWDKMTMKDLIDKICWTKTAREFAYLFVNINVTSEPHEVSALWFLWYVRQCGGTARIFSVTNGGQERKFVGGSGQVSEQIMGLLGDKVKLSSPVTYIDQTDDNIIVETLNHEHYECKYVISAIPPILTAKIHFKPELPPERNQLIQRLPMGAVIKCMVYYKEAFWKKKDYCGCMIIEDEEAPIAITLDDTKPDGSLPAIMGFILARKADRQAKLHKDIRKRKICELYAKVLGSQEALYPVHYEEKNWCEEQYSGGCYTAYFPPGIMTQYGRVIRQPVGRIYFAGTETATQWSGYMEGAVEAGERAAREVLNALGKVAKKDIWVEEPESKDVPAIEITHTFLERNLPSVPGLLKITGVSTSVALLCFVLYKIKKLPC

Acetylcholinesterase, sequence (O42275 whole entry): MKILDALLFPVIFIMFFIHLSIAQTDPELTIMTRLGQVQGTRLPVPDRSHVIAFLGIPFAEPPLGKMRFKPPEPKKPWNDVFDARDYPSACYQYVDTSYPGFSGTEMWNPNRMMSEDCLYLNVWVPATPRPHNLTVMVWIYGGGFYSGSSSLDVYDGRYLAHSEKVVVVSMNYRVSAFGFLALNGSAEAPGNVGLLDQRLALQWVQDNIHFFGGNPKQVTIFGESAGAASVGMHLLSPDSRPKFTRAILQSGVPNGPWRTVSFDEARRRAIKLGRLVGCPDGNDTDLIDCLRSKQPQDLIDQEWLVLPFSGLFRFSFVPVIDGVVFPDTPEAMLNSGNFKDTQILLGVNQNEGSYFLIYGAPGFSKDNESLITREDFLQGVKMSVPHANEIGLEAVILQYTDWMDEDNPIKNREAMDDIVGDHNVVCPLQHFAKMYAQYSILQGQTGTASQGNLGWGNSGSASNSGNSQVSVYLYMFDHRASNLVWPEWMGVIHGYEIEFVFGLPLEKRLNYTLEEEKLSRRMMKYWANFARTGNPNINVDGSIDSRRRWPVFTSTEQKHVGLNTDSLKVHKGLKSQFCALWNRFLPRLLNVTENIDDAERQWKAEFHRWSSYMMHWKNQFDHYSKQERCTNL

Structure (SMILES)	Ratio IC50 (Homo sapiens [2])	IC50 [3]	activity at 10 µM [6]	activity at 10 µM [7]	IC50 [8]	IC50 (Acetylcholinesterase)	further results
C=C(C)C(O)CC/C(C)=C/COc1ccc2ccc(=O)oc2c1 (stereo not drawn)							IC50 [1]: 1300 nM
COc1ccc(-c2oc3cc(O)cc(O)c3c(=O)c2O)cc1 [KAEMPFERIDE]	0.89	190 nM					
Cc1cccc(N2CC(CO)OC2=O)c1 (stereo not drawn) [TOLOXATONE]							activity at 2 µM [4]: 28.4%; activity at 2 µM [5]: 88.6%
CC(C)=CCc1c(O)ccc2ccc(=O)oc12 [OSTHENOL]	> 81.1	740 nM	9.9%	84.7%	> 60 µM	25.3 µM	activity at 1.5 µM [9]: 23.7%; activity at 1.5 µM [10]: 90.7%; Ki [11]: 260 nM
O=c1ccc2c(ccc3ccoc32)o1 [BAKUCHICIN]	3.1	1780 nM	18.6%	37.8%	5.44 µM	35.7 µM	
COc1cc(O)c2c(=O)c(O)c(-c3ccc(O)cc3)oc2c1 [RHAMNOCITRIN]							IC50 [12]: 51 nM; Ratio IC50 (Homo sapiens [13]): 58.2
COc1cc2ccc(=O)oc2cc1O [SCOPOLETIN]		> 20000 nM	97%	97.7%	> 60 µM	35.8 µM	
Oc1ccc(/C=C/c2cc(O)cc3c2[C@@H](c2cc(O)cc(O)c2)[C@H](c2ccc(O)cc2)O3)cc1 [EPSILON-VINIFERIN]							IC50 [14]: 19.6 µM
O=c1ccc2cc3ccoc3cc2o1 [PSORALEN]		> 20000 nM	71%	78.3%	> 60 µM	29.5 µM	
CC(C)=CCOc1c2ccoc2cc2oc(=O)ccc12 [ISOIMPERATORIN]		> 20000 nM	76.2%	78.3%	> 60 µM	25.6 µM	
C#CCN(C)CCCOc1ccc(Cl)cc1Cl [CLORGILINE]							activity at 0.01 µM [15]: 20.4%; activity at 0.01 µM [16]: 23.3%
O=c1ccc2ccc3occc3c2o1 [ANGELICIN]	3.1	880 nM	12%	27.2%	2.73 µM	25.4 µM	IC50 [17]: 9 µM; Ki [11]: 460 nM

Reference: ChEMBL document CHEMBL4422655, “Osthenol, a prenylated coumarin, as a monoamine oxidase A inhibitor with high selectivity” (Bioorg Med Chem Lett, 2019)
